This is an account of results in US20250136607A1 (REGOR PHARMACEUTICALS, INC., priority 2021, published 2025).

The target of the assay is Protein arginine deiminase 4 (PAD4) (Homo sapiens, UniProt Q9UM07). The assay is described as follows: PAD4 ammonia release assay. Type of assay: biochemical. In outline: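 PAD4 (20 nM, 2× working solution) was preincubated with compound for 15 min at RT in 100 mM HEPES pH 8.0, 2 mM CaCl2, 50 mM NaCl, 0.1 mM TCEP, BSA at 1.25% DMSO. BAEE (600 μM, 2× mix) reacted 60 min, then OPA/DTT/EDTA detection for 120 min. IC50 came from a 4-parameter fit, normalized to 50 μM reference (100%) and DMSO (0%).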
Chain of Protein arginine deiminase 4 (PAD4) (Q9UM07 whole entry): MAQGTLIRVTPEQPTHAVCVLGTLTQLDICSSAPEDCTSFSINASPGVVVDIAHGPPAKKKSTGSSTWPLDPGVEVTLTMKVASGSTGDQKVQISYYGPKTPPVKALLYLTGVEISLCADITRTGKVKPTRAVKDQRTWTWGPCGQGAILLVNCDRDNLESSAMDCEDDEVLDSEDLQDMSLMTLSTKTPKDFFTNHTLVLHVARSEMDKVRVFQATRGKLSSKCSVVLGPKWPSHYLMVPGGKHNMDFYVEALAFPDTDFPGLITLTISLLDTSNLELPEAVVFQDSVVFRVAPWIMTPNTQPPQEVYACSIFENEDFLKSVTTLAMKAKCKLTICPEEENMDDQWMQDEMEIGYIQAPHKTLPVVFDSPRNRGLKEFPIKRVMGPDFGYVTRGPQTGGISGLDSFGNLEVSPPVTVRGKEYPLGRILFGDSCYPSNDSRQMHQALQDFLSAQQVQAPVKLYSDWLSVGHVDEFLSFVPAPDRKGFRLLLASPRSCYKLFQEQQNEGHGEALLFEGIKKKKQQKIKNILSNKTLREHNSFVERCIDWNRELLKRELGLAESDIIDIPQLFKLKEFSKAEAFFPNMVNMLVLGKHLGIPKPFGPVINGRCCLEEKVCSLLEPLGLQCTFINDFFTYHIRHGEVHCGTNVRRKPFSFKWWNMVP

[1] abbreviates: PAD4 ammonia release assay, BAEE substrate, 60 min at RT, read-out: Average IC50 Abs.
Where [2] appears, read: PAD4 activity comparison, read-out: PAD4 Ammonia assay IC50.

Like-named read-outs stand apart in the source and are kept apart here.

The term IC50 denotes the concentration that inhibits the measured activity by half. Take `Cn1c(-c2cc3ccc4[nH]ccc4c3n2CC2CC2)nc2cc(C(=O)N3C[C@H]4CC[C@@H]3[C@@H]4N)cc(F)c21` [Example 144, ((1R,4R,7R)-7-amino-2-azabicyclo[2.2.1]heptan-2-yl)(2-(1-(cyclopropylmethyl)-1,6-dihydropyrrolo[2,3-e]indol-2-yl)-7-fluoro-1-methyl-1H-benzo[d]imidazol-5-yl)methanone]: the half-inhibitory concentration (IC50) under setting [1] lay in the range of 0.1 to 0.5 µM. Same read-out and setting: with `Cn1c(-c2cc3ccc4c(c3n2CC2CC2)CC(=O)N4)nc2cc(C(=O)N3C[C@H]4CC[C@@H]3[C@@H]4N)cc(F)c21` [Example 145, 2-(5-((1R,4R,7R)-7-amino-2-azabicyclo[2.2.1]heptane-2-carbonyl)-7-fluoro-1-methyl-1H-benzo[d]imidazol-2-yl)-1-(cyclopropylmethyl)-6,8-dihydropyrrolo[2,3-e]indol-7(1H)-one] the figure was 0.5 to 5 µM.

With `CN1C(=O)Cc2c1ccc1cc(-c3nc4cc(C(=O)N5C[C@H]6CC[C@@H]5[C@@H]6N)cc(F)c4n3C)n(CC3CC3)c21` [Example 146, 2-(5-((1R,4R,7R)-7-amino-2-azabicyclo[2.2.1]heptane-2-carbonyl)-7-fluoro-1-methyl-1H-benzo[d]imidazol-2-yl)-1-(cyclopropylmethyl)-6-methyl-6,8-dihydropyrrolo[2,3-e]indol-7(1H)-one], the 50% inhibitory concentration (IC50) under setting [1] is > 5 µM. The same measure, in the same setting: with `Cn1c(-c2cc3ccc4c(Cl)c[nH]c4c3n2CC2CC2)nc2cc(C(=O)N3C[C@H]4CC[C@@H]3[C@@H]4N)cc(F)c21` [Example 149, ((1R,4R,7R)-7-amino-2-azabicyclo[2.2.1]heptan-2-yl)(2-(6-chloro-1-(cyclopropylmethyl)-1,8-dihydropyrrolo[3,2-g]indol-2-yl)-7-fluoro-1-methyl-1H-benzo[d]imidazol-5-yl)methanone] the figure was 0.5 to 5 µM; with `Cn1c(-c2cc3ccn4ccnc4c3n2CC2CC2)nc2cc(C(=O)N3C[C@H]4CC[C@@H]3[C@@H]4N)cc(F)c21` [Example 150, ((1R,4R,7R)-7-amino-2-azabicyclo[2.2.1]heptan-2-yl)(2-(9-(cyclopropylmethyl)-9H-imidazo[1,2-a]pyrrolo[2,3-c]pyridin-8-yl)-7-fluoro-1-methyl-1H-benzo[d]imidazol-5-yl)methanone], 0.1 to 0.5 µM; with `Cn1c(-c2cc3ccc4c(c3n2CC2CC2)CCNC4)nc2cc(C(=O)N3C[C@H]4CC[C@@H]3[C@@H]4N)cc(F)c21` [Example 151, ((1R,4R,7R)-7-amino-2-azabicyclo[2.2.1]heptan-2-yl)(2-(1-(cyclopropylmethyl)-6,7,8,9-tetrahydro-1H-pyrrolo[2,3-f]isoquinoline-2-yl)-7-fluoro-1-methyl-1H-benzo[d]imidazol-5-yl)methanone], 0.5 to 5 µM. Turning to `CN1CCc2c(ccc3cc(-c4nc5cc(C(=O)N6C[C@H]7CC[C@@H]6[C@@H]7N)cc(F)c5n4C)n(CC4CC4)c23)C1` [Example 152, ((1R,4R,7R)-7-amino-2-azabicyclo[2.2.1]heptan-2-yl)(2-(1-(cyclopropylmethyl)-7-methyl-6,7,8,9-tetrahydro-1H-pyrrolo[2,3-f]isoquinolin-2-yl)-7-fluoro-1-methyl-1H-benzo[d]imidazol-5-yl)methanone], the IC50 under setting [1] lay within 0.1 to 0.5 µM. Same read-out and setting: with `CC(C)N1CCc2c(ccc3cc(-c4nc5cc(C(=O)N6C[C@H]7CC[C@@H]6[C@@H]7N)cc(F)c5n4C)n(CC4CC4)c23)C1` [Example 154, ((1R,4R,7R)-7-amino-2-azabicyclo[2.2.1]heptan-2-yl)(2-(1-(cyclopropylmethyl)-7-isopropyl-6,7,8,9-tetrahydro-1H-pyrrolo[2,3-f]isoquinolin-2-yl)-7-fluoro-1-methyl-1H-benzo[d]imidazol-5-yl)methanone] the figure was 0.5 to 5 µM; with `Cn1c(-c2cc3ccc4c(c3n2CC2CC2)CCN(C2CC2)C4)nc2cc(C(=O)N3C[C@H]4CC[C@@H]3[C@@H]4N)cc(F)c21` [Example 155, ((1R,4R,7R)-7-amino-2-azabicyclo[2.2.1]heptan-2-yl)(2-(7-cyclopropyl-1-(cyclopropylmethyl)-6,7,8,9-tetrahydro-1H-pyrrolo[2,3-f]isoquinolin-2-yl)-7-fluoro-1-methyl-1H-benzo[d]imidazol-5-yl)methanone], 0.1 to 0.5 µM. As to `Cc1nnc2c3c(ccn12)cc(-c1nc2cc(C(=O)N4C[C@H]5CC[C@@H]4[C@@H]5N)cc(F)c2n1C)n3CC1CC1` [Example 159, [(1R,4R,7R)-7-amino-2-azabicyclo[2.2.1]heptan-2-yl]-[2-[12-(cyclopropylmethyl)-5-methyl-3,4,6,12-tetrazatricyclo[7.3.0.02,6]dodeca-1(9), 2,4,7,10-pentaen-11-yl]-7-fluoro-1-methyl-benzimidazol-5-yl]methanone], the IC50 under setting [1] fell in the range of 0.5 to 5 µM. The same measure, in the same setting: in the case of `Cn1c(-c2cc3ccn4c(=O)[nH]nc4c3n2CC2CC2)nc2cc(C(=O)N3C[C@H]4CC[C@@H]3[C@@H]4N)cc(F)c21` [Example 160, 8-(5-((1R,4R,7R)-7-amino-2-azabicyclo[2.2.1]heptane-2-carbonyl)-7-fluoro-1-methyl-1H-benzo[d]imidazol-2-yl)-9-(cyclopropylmethyl)-2,9-dihydro-3H-pyrrolo[2,3-c][1,2,4]triazolo[4,3-a]pyridin-3-one] it was 0.5 to 5 µM; in that of `Cn1c(-c2cc3ccc4c(c3n2CC2CC2)NCC[S+]4[O-])nc2cc(C(=O)N3C[C@H]4CC[C@@H]3[C@@H]4N)cc(F)c21` (stereo partly drawn) [Example 162, ((1R,4R,7R)-7-amino-2-azabicyclo[2.2.1]heptan-2-yl)(2-(9-(cyclopropylmethyl)-4-oxido-1,2,3,9-tetrahydro-[1,4]thiazino[2,3-g]indol-8-yl)-7-fluoro-1-methyl-1H-benzo[d]imidazol-5-yl)methanone], 0.5 to 5 µM. Same read-out and setting: in the case of `Cn1c(-c2cc3ccc4c(c3n2CC2CC2)CCCN4)nc2cc(C(=O)N3C[C@H]4CC[C@@H]3[C@@H]4N)cc(F)c21` [Example 163, ((1R,4R,7R)-7-amino-2-azabicyclo[2.2.1]heptan-2-yl)(2-(1-(cyclopropylmethyl)-6,7,8,9-tetrahydro-1H-pyrrolo[2,3-f]quinolin-2-yl)-7-fluoro-1-methyl-1H-benzo[d]imidazol-5-yl)methanone] it was 0.1 to 0.5 µM.

As to `Cn1c(-c2cc3ccc4cc[nH]c4c3n2CC2CCC2)nc2cc(C(=O)N3C[C@H]4CC[C@@H]3[C@@H]4N)cc(F)c21` [Example 165, ((1R,4R,7R)-7-amino-2-azabicyclo[2.2.1]heptan-2-yl)(2-(1-(cyclobutylmethyl)-1,8-dihydropyrrolo[3,2-g]indol-2-yl)-7-fluoro-1-methyl-1H-benzo[d]imidazol-5-yl)methanone], under setting [1], the concentration for half-maximal inhibition (IC50) was ≤ 0.1 µM. `Cn1c(-c2cc3cccc4c3n2CCN4)nc2cc(C(=O)N3CCC[C@@H](N)C3)ccc21` [Example 166, (R)-(3-aminopiperidin-1-yl)(2-(2,3-dihydro-1H-pyrrolo[1,2,3-de]quinoxalin-5-yl)-1-methyl-1H-benzo[d]imidazol-5-yl)methanone]: the half-maximal inhibitory concentration (IC50) under setting [2] was found to be 9.53 µM and the 50% inhibitory concentration (IC50) under setting [1] is > 5 µM. The matching figures for `CC1CNc2cccc3cc(-c4nc5cc(C(=O)N6CCC[C@@H](N)C6)ccc5n4C)n1c23` (stereo partly drawn) [Example 167, ((R)-3-aminopiperidin-1-yl)(1-methyl-2-(3-methyl-2,3-dihydro-1H-pyrrolo[1,2,3-de]quinoxalin-5-yl)-1H-benzo[d]imidazol-5-yl)methanone]: 4.09 µM and 0.5 to 5 µM. For `Cn1c(-c2cc3cccc4c3n2CCN4)nc2cc(C(=O)N3C[C@H]4CC[C@@H]3[C@@H]4N)ccc21` [Example 168, ((1R,4R,7R)-7-amino-2-azabicyclo[2.2.1]heptan-2-yl)(2-(2,3-dihydro-1H-pyrrolo[1,2,3-de]quinoxalin-5-yl)-1-methyl-1H-benzo[d]imidazol-5-yl)methanone] the same measures were 2.31 µM and 0.5 to 5 µM.

With `CC1CNc2cccc3cc(-c4nc5cc(C(=O)N6C[C@H]7CC[C@@H]6[C@@H]7N)ccc5n4C)n1c23` (stereo partly drawn) [Example 169, ((1R,4R,7R)-7-amino-2-azabicyclo[2.2.1]heptan-2-yl)(1-methyl-2-(3-methyl-2,3-dihydro-1H-pyrrolo[1,2,3-de]quinoxalin-5-yl)-1H-benzo[d]imidazol-5-yl)methanone], the IC50 runs as follows: under setting [2], 0.55 µM; under setting [1], 0.5 to 5 µM. With `COc1cc(C(=O)N2C[C@H]3CC[C@@H]2[C@@H]3N)cc2nc(-c3cc4cccc5c4n3C(C3CC3)CN5)c(C)n12` (stereo partly drawn) [Example 170, ((1R,4R,7R)-7-amino-2-azabicyclo[2.2.1]heptan-2-yl)(2-(3-cyclopropyl-2,3-dihydro-1H-pyrrolo[1,2,3-de]quinoxalin-5-yl)-5-methoxy-3-methylimidazo[1,2-a]pyridin-7-yl)methanone], the IC50 under setting [1] is > 5 µM.
